Reference: patent publication US9853225B2, “Chalcogen-containing organic compound and a use thereof” (JNC CORPORATION, priority 2013, dated 2017)

How the values were obtained:
[1] = Evaluation of chemical stability, UV-Vis spectra of film standing in atmospheric air; type: physicochemical; conditions: vacuum-deposited film 100 nanometers, one week in atmospheric air
Source text: A film having a thickness of 100 nanometers formed by performing vacuum deposition of the compound synthesized in Example 4 was allowed to stand for one week in atmospheric air. The results obtained by measuring UV-Vis spectra (device used: Jasco V-570 Spectrometer, made by JASCO Corporation) over time during the period are shown in FIG. 3. […] According to the above, the compound of the present invention is clearly found to be chemically stable too.

[2] = Evaluation of thermal stability, TG/DTA; type: physicochemical; conditions: heating 5° C. per minute
[3] = Evaluation of thermal stability, DSC; type: physicochemical; conditions: heating 5° C. per minute

Compound	change of UV-Vis spectrum of film [1]	melting point	5% weight reduction temperature [2]	phase transition points [3]
CCCCCCCCCCc1ccc2cc3oc4cc5c(cc4c3cc2c1)oc1cc2ccc(CCCCCCCCCC)cc2cc15 [Example 1, 2,10-didecyldinaphtho[2,3-d:2′,3′-d′]benzo[1,2-b:4,5-b′]difuran]	–	316 to 317 °C	–	–
CCCCCCCCCCc1ccc2cc3sc4cc5c(cc4c3cc2c1)sc1cc2ccc(CCCCCCCCCC)cc2cc15 [Example 2, 2,10-didecyldinaphtho[2,3-d:2′,3′-d′]benzo[1,2-b:4,5-b′]dithiophene]	–	285 to 286 °C	–	–

The next lines start with the values.

change of UV-Vis spectrum of film [1]	melting point	5% weight reduction temperature [2]	phase transition points [3]	Compound
no change of the spectrum was observed	263 to 264 °C	426 °C	–	CCCCCCCCCCc1ccc2cc3c(cc2c1)sc1cc2c(cc13)sc1cc3cc(CCCCCCCCCC)ccc3cc12 [Example 4, 3,11-didecyldinaphtho[2,3-d:2′,3′-d′]benzo[1,2-b:4,5-b′]dithiophene]
–	≥ 350 °C	–	–	CCCCCCCCCCc1ccc2cc3c(cc2c1)oc1cc2c(cc13)oc1cc3cc(CCCCCCCCCC)ccc3cc12 [Example 3, 3,11-didecyldinaphtho[2,3-d:2′,3′-d′]benzo[1,2-b:4,5-b′]difuran]
–	> 300 °C	–	–	CCCCCCc1ccc2cc3c(cc2c1)sc1cc2c(cc13)sc1cc3cc(CCCCCC)ccc3cc12 [Example 5, 3,11-dihexyldinaphtho[2,3-d:2′,3′-d′]benzo[1,2-b:4,5-b′]dithiophene]
no change of the spectrum was observed	≥ 300 °C	450 °C	no phase transition point was observed	CCCCCCCCCCc1ccc2cc3c(cc2c1)sc1cc2cc4c(cc2cc13)sc1cc2cc(CCCCCCCCCC)ccc2cc14 [Example 7]
